From ChEMBL document CHEMBL5465560, “Selectivity Literature for EUbOPEN Chemogenomic Library” (2024)

Tests used:
[1] = target: T1, Serine/threonine-protein kinase D3 (Homo sapiens) (UniProt O94806); details: at 10 µM
T1 sequence (whole entry): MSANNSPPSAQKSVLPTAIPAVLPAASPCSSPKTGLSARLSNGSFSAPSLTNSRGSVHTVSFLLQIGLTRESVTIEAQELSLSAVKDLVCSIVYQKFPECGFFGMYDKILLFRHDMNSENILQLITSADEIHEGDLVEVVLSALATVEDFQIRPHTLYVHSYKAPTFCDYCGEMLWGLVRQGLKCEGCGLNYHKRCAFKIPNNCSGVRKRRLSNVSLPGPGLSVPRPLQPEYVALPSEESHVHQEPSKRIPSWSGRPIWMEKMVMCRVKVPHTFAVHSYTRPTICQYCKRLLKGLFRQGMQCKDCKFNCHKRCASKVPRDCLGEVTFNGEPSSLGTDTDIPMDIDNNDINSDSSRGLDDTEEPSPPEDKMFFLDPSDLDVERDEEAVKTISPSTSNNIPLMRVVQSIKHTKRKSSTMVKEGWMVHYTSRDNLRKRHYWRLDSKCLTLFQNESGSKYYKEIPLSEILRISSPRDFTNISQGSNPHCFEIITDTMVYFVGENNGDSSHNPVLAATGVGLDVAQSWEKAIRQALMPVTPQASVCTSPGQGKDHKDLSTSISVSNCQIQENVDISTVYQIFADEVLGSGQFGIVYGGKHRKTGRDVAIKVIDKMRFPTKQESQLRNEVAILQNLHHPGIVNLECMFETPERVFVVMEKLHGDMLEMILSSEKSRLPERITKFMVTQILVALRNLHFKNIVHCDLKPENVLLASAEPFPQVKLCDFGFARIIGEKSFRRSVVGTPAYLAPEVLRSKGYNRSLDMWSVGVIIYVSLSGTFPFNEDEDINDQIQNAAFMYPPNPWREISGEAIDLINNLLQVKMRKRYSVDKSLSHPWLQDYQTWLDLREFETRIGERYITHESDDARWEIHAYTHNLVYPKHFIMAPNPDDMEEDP

[2] = target: T2, Mitogen-activated protein kinase kinase kinase 3 (Homo sapiens) (UniProt Q99759); test: Selectivity interaction (KinomeScan (DiscoverX)) EUB0001049a MAP3K3; details: at 1 µM
T2 sequence (whole entry): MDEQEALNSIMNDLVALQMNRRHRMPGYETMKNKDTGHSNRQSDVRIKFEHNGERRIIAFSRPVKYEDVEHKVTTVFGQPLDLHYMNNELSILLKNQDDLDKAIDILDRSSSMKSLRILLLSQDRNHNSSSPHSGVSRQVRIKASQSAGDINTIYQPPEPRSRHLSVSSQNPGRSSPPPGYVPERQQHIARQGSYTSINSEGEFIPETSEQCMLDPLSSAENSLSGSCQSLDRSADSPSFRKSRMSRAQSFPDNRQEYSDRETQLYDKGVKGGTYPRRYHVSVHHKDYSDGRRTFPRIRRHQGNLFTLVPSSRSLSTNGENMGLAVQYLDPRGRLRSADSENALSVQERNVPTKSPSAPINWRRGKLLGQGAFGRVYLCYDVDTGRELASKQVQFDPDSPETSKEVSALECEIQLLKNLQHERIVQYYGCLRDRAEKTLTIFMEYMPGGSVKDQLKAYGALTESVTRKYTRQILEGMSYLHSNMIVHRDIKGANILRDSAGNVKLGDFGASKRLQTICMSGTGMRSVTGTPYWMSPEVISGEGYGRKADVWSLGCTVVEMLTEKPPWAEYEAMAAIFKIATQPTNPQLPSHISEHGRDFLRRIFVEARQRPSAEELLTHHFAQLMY

[3] = target: T3, Ephrin type-B receptor 4 (Homo sapiens) (UniProt P54760); test: Selectivity interaction (Ambit KINOMEscan and KiNATiv profiling in Jurkat cells) EUB0000090b EPHB4; format: cell-based; details: at 1 µM
T3 sequence (whole entry): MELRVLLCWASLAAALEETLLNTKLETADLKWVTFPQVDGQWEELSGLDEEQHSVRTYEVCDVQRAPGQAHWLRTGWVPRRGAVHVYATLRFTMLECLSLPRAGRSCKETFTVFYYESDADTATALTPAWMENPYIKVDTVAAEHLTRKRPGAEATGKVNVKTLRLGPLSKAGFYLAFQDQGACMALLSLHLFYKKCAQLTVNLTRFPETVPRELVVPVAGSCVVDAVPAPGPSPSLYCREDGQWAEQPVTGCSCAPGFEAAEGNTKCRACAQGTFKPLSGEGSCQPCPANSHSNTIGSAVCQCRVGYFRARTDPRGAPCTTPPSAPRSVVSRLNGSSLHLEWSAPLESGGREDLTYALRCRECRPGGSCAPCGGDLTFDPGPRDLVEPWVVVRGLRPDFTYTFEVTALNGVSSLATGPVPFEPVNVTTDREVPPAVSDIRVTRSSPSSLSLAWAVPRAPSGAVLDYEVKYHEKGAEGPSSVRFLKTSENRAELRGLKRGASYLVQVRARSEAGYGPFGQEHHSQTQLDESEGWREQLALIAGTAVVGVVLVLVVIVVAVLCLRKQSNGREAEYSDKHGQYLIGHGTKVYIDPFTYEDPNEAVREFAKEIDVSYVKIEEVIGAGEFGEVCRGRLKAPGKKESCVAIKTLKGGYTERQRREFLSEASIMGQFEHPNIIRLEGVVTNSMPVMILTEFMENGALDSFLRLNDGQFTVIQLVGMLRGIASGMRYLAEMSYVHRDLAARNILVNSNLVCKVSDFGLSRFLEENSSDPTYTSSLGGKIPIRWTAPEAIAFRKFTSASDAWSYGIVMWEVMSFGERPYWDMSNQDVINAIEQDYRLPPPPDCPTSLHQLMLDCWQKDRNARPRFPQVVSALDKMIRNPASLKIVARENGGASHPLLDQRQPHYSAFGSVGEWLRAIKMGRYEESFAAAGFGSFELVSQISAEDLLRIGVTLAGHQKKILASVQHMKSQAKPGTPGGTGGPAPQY

Structure (SMILES): Cc1cc([C@@H](C)Nc2ccccc2C(=O)O)c2nc(N3CCOCC3)cc(=O)n2c1 [AZD-6482]
- % of control [1]: 100%

Structure (SMILES): COc1cc(Nc2nc(C)cc(-c3cnn4nc(OC)ccc34)n2)cc(C(F)(F)F)c1
- % of control [2]: 72%

Structure (SMILES): CN(C)C/C=C/C(=O)Nc1ccc(C(=O)N2CCCC(Nc3ncc(Cl)c(-c4c[nH]c5ccccc45)n3)C2)cc1 (stereo not drawn)
- % of control [3]: 94%
